In PubChem BioAssay AID1329 (NMMLSC, 2008):
Calls of active or inactive are those of the source. The rule behind the calls is not given here.

The molecules below were run against Induced myeloid leukemia cell differentiation protein Mcl-1 (Homo sapiens) (UniProt Q07820) (assay: Mcl-1/Bim interaction regulators – biochemical, bead-based flow cytometry, multiplexed, human, dose response (AID 1329)). Conditions: Bim peptide-Mcl-1 binding, MCF.
Sequence of Induced myeloid leukemia cell differentiation protein Mcl-1 (Homo sapiens) (Q07820 whole entry, looked up): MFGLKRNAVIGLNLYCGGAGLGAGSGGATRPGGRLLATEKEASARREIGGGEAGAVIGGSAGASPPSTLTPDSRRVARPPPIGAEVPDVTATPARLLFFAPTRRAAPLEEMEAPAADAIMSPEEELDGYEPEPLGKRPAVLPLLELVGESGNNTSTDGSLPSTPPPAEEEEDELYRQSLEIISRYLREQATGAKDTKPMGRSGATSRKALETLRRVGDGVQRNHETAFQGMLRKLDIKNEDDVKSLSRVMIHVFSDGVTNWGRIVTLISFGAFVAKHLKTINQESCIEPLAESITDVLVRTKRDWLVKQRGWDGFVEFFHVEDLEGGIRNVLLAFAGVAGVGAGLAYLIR
For `CCCCOC(=O)c1nc(Cl)c(Cl)c(N)c1Cl`, the percent span was “inactive”.
`Cc1nnc(Sc2cc(NCCCO)c([N+](=O)[O-])c3nonc23)s1` was tested, and the percent span was “inactive”.
For `CCN1CCN(c2cc(C)c3cc(NC(=S)N4CCCCC4)ccc3n2)CC1`, the percent span was “inactive”.
For `O=C(CCl)Nc1cccc2ncccc12`, the percent span was “inactive”.
For `Cc1cc(Cl)ccc1N=c1ssnc1Cl`, the percent span was “inactive”.
In the case of `CCOc1ccc(C(=O)Nc2nnn(CC)n2)cc1`, the percent span was “inactive”.
For `CNc1ccc(Br)cc(C(=O)/C=C/c2cc(OC)ccc2OC)c1=O`, the percent span was “inactive”.
In the case of `O=C(NCC1CCCO1)c1ccc2c(=O)n(-c3ccc(F)cc3)c(=S)[nH]c2c1` (stereo not drawn), the percent span was “inactive”.
In the case of `Nc1c(C(=O)NCc2ccco2)sc2nc3c(cc12)C(=O)CCC3`, the percent span was “inactive”.
For `CC(=O)NC(=O)Nc1sc(=S)n(C)c1C`, the percent span was “inactive”.
In the case of `CSc1n[nH]c2nc3c(c(=O)n12)C1(CCCC1)Cc1ccccc1-3`, the percent span was “inactive”.
For `Cc1ccc(C(=O)C(C(=O)/C=C/c2ccccc2)=C2SCCCS2)cc1`, the percent span was “inactive”.
With `CC(=O)OCCCNc1cc(Sc2nc3ccccc3s2)c2nonc2c1[N+](=O)[O-]` the percent span was “inactive”.
In the case of `O=C1C(Cl)=C(N2CCN(c3ccccc3[N+](=O)[O-])CC2)C(=O)c2ccccc21`, the percent span was “inactive”.
`Cc1cc(C)n(CC(=O)N/N=C/c2cccc([N+](=O)[O-])c2)n1` was tested, and the percent span was “inactive”.
`COc1ccc(N2CC(C(=O)Nc3nnc(SCC(=O)c4ccccc4)s3)CC2=O)cc1` (stereo not drawn) was tested, and the percent span was “inactive”.
For `O=C(C1=C(Nc2ccccc2)c2ccccc2S(=O)(=O)N1)c1ccccc1`, the percent span was “inactive”.
With `Cc1c(NC2=C(Cl)C(=O)N(c3ccccc3Cl)C2=O)c(=O)n(-c2ccccc2)n1C` the percent span was “inactive”.
With `Cc1c(N2C(=O)c3ccc4c5c(ccc(c35)C2=O)CC4)c(=O)n(-c2ccccc2)n1C` the percent span was “inactive”.
For `Nc1ccc(N2CCCCCC2)cc1`, the percent span was “inactive”.
`COC(=O)/C(=C/c1ccc(F)cc1)NC(C)=O` was tested, and the percent span was “inactive”.
With `Cc1ccc(S(=O)(=O)N2CCCCC2)cc1NC(=O)COC(=O)c1ccccc1F` the percent span was “inactive”.
With `COC(=O)c1[nH]c2ccccc2c1NC(=O)c1ccccc1[N+](=O)[O-]` the percent span was “inactive”.
In the case of `COc1cc(/C=C2\CC/C(=C\c3cc(OC)c(O)c(OC)c3)C2=O)cc(OC)c1O`, the percent span was “inactive”.
`Cn1c(=O)c(C(=O)COC(=O)c2cc(-c3ccco3)nc3ccccc23)c(N)n(Cc2ccccc2)c1=O` was tested, and the percent span was “inactive”.
In the case of `CN=C(NC1CCCCC1)c1ccc(Cl)cc1`, the percent span was “inactive”.
`Cc1cc(N2CCN(C)CC2)nc2ccc(NC(=S)N3CCC4(CC3)OCCO4)cc12` was tested, and the percent span was “inactive”.
With `CCOc1cc(S(=O)(=O)N2CCCCC2)ccc1F` the percent span was “inactive”.
With `Cc1ccc(CNc2ccc3c(c2)OCO3)c(C)c1` the percent span was “inactive”.
For `COc1ccc(Cl)cc1-n1c(C)cc(C=O)c1C`, the percent span was “inactive”.
For `COc1cccc(/C=C2/SC(=O)N(C)C2=O)c1OCc1ccc(C(=O)O)cc1`, the percent span was “inactive”.
For `CCc1ccc(/C=C/C(=O)c2cc(Br)ccc(=O)c2O)cc1`, the percent span was “inactive”.
For `Cc1ccc2c(C)c(C(=O)Nc3nnc(C)s3)oc2c1`, the percent span was “inactive”.
With `O=C1Nc2ccc([N+](=O)[O-])cc2OC1CCN1CCN(Cc2ccc3c(c2)OCO3)CC1` (stereo not drawn) the percent span was “inactive”.
In the case of `Oc1ccc(NCc2ccccc2OCc2ccccc2)cc1`, the percent span was “inactive”.
With `COc1ccccc1-n1c(-c2ccccc2)c[nH]c1=S` the percent span was “inactive”.
In the case of `CC[n+]1c(/C=C/C=C/N(C(C)=O)c2ccccc2)sc2ccccc21`, the percent span was “inactive”.
With `Cc1ccc(-c2cc(-c3ccccc3)c(C#N)c(N)n2)o1` the percent span was “inactive”.
For `COc1cc(N2CCOCC2)ccc1C=C1C(=O)NC(=O)NC1=O`, the percent span was “inactive”.
With `CCOC(=O)c1cc2c(=O)n3ccccc3nc2n(Cc2ccco2)c1=NC(=O)c1ccccc1OC` the percent span was “inactive”.
`O=C1N/C(=C/c2cccn2-c2ccccc2)C(=O)N1Cc1ccc(F)cc1` was tested, and the percent span was “inactive”.
`Clc1ccc(N=c2ssnc2Cl)nc1` was tested, and the percent span was “inactive”.
For `CCN(CC)c1ccc(NC(=O)c2ccccc2)cc1S(=O)(=O)Nc1ccccc1OC`, the percent span was “inactive”.
In the case of `CC1(C)CC(=O)C(C=NCCN2CCN(CCc3ccccc3)CC2)=C(O)C1`, the percent span was “inactive”.
For `CC(C)NS(=O)(=O)c1ccc(OCC(=O)Nc2ccc(F)cc2)cc1`, the percent span was “inactive”.
With `Cc1ccc(C(=O)N(CCCN(C)C)c2nc3ccc(Cl)cc3s2)cc1C` the percent span was “inactive”.
In the case of `CCN(CC)c1ccc(NC(=O)c2ccccc2F)cc1S(=O)(=O)Nc1ccccc1OC`, the percent span was “inactive”.
With `CCOC(=O)c1c(NC(C)=O)sc2c(O)c(Br)cc(Br)c12` the percent span was “inactive”.
In the case of `Clc1ccc2c(N/N=C/c3ccc(Br)cc3)ccnc2c1`, the percent span was “inactive”.
For `CCN1/C(=C/c2ccc3cc(C)ccc3[n+]2CC)Sc2cc(C)c(C)cc21`, the percent span was “inactive”.
For `COc1ccc(C2=Nn3c(nnc3-c3ccccn3)SC2)cc1OC`, the percent span was “inactive”.
With `COc1ccc(C(=O)NC(=S)N2CCNC(=O)C2)cc1Br` the percent span was “inactive”.
In the case of `COc1ccccc1N(C)S(=O)(=O)c1ccc(C(=O)OCC(N)=O)cc1`, the percent span was “inactive”.
With `O=C(NCCN1CCOCC1)c1cc(Cl)ccc1[N+](=O)[O-]` the percent span was “inactive”.
`Cc1c(N=C2C=CC(=O)c3ccccc32)c(=O)n(-c2ccccc2)n1C` was tested, and the percent span was “inactive”.
With `CC1Cc2ccccc2N1C(=O)CSc1nnnn1-c1ccc2c(c1)OCCO2` (stereo not drawn) the percent span was “inactive”.
`S=c1[nH]cc(-c2ccccc2)n1-c1ccccc1Cl` was tested, and the percent span was “inactive”.
`O=[N+]([O-])c1ccc(-c2cn(-c3ccc(Cl)cc3)c(=S)[nH]2)cc1` was tested, and the percent span was “inactive”.
In the case of `O=C(c1cnccn1)N1CCN(c2ccccc2F)CC1`, the percent span was “inactive”.
With `COc1cc(NC(=O)c2ccc3c(c2)OCO3)ccc1NC(=O)c1ccco1` the percent span was “inactive”.
For `O=C(OCc1nc2ccccc2[nH]1)C12CC3CC(CC(C3)C1)C2`, the percent span was “inactive”.
`CCOc1ccccc1NC(=O)CSc1ccc2nnc(-c3cccnc3)n2n1` was tested, and the percent span was “inactive”.
With `CC(C)COC(=O)/C(C#N)=C/c1cn(Cc2ccccc2)c2ccccc12` the percent span was “inactive”.
`CC(C)C(=O)NC(c1ccccc1)c1cc([N+](=O)[O-])c2cccnc2c1O` (stereo not drawn) was tested, and the percent span was “inactive”.
With `COc1ccc(CCNC(=O)c2ccc3nc(-c4ccco4)c(-c4ccco4)nc3c2)cc1OC` the percent span was “inactive”.
With `COc1ccccc1-n1c(SCC(=O)N2CCc3ccccc32)nc2c(c1=O)SCC2` the percent span was “inactive”.
With `C=CCn1c(C)c(C(C)=O)c(N2CCOCC2)nc1=S` the percent span was “inactive”.
`Cc1cc(C(=O)NCCCN(C)C)c2ccccc2n1` was tested, and the percent span was “inactive”.
`O=C(NC1=C(NC2CCS(=O)(=O)C2)C(=O)c2ccccc2C1=O)c1ccccc1` (stereo not drawn) was tested, and the percent span was “inactive”.
`Oc1ccc(C=NCC2COc3ccccc3O2)cc1` (stereo not drawn) was tested, and the percent span was “inactive”.
With `O=C(Nc1cccc(Cl)c1)Nc1ccc(Cl)cn1` the percent span was “inactive”.
In the case of `C#CCOCCOCCOCCNc1nc(N2CCN(C(=O)[C@H]([C@@H](C)CC)n3cc([C@@H](N)CC(C)C)nn3)CC2)nc(N2CCN(C(=O)[C@H](Cc3cc4ccccc4[nH]3)n3cc([C@@H](N)Cc4ccc(O)cc4)nn3)CC2)n1`, the percent span was “inactive”.
`CCN1CCN(c2ccc(NC(=O)c3ccc4c(c3)[nH]c(=O)n4Cc3ccc(OC)cc3)cc2)CC1` was tested, and the percent span was “inactive”.
`COc1ccc(N=C2NC(=O)/C(=C\C=C\c3ccco3)S2)cc1` was tested, and the percent span was “inactive”.
For `CN(Cc1cccs1)C(=O)CCc1c[nH]c2ccccc12`, the percent span was “inactive”.
With `Cc1nc2scc(-c3ccccc3)c2c(=O)n1N=C1C=CC(=O)C=C1` the percent span was “inactive”.
`CNC(CC(=O)c1ccc([N+](=O)[O-])cc1)C(Cl)(Cl)Cl` (stereo not drawn) was tested, and the percent span was “inactive”.
`Cc1cnnn1-c1ccc(C(=O)CCl)cc1` was tested, and the percent span was “inactive”.
With `Fc1ccc(Cn2nnnc2C(c2ccc(Cl)cc2)N2CCSCC2)cc1` (stereo not drawn) the percent span was “inactive”.
For `Cc1cc(N/C(=N/S(=O)(=O)c2cc(F)ccc2F)c2ccccc2)n(-c2ccccc2)n1`, the percent span was “inactive”.
With `c1ccc(-c2nc(N3CCCCCC3)c3ccccc3n2)nc1` the percent span was “inactive”.
In the case of `CCOc1ccc(C2=Nn3c(nnc3-c3ccco3)SC2)cc1`, the percent span was “inactive”.
With `COc1cc(NC(=S)NC(=O)c2cc(C)cc(C)c2)ccc1NC(=O)c1cccs1` the percent span was “inactive”.
`O=C(Nc1n[nH]c(C(F)(F)F)n1)C1CC1` was tested, and the percent span was “inactive”.
In the case of `COc1ccc2cc(CN(CCc3ccccc3)Cc3nnnn3CC3CCCO3)c(=O)[nH]c2c1` (stereo not drawn), the percent span was “inactive”.
With `O=C(CCc1ccccc1)N1CCN(c2ccccn2)CC1` the percent span was “inactive”.
In the case of `CN(CCCOc1ccccc1Br)Cc1ccccc1`, the percent span was “inactive”.
`O=c1c2c(-c3ccccc3)csc2nc2c3ccccc3c(NCCN3CCOCC3)nn12` was tested, and the percent span was “inactive”.
For `COCCNC(=O)CN1CCC(NC(=O)Nc2ccccc2)CC1`, the percent span was “inactive”.
With `O=C(c1cnccn1)N(Cc1cccs1)C1(C(=O)NC2CCCCC2)CCCCC1` the percent span was “inactive”.
With `COc1ccc(CC(=O)Nc2ccccc2Oc2ccccc2)cc1` the percent span was “inactive”.
In the case of `CCn1c(C)nc2cc(C(=O)N/N=C/c3ccc(O)c(O)c3O)ccc21`, the percent span was “inactive”.
For `Cc1cccc(-n2c(-c3ccncc3)n[nH]c2=S)c1`, the percent span was “inactive”.
With `CCOc1ccccc1/C=N/NC(=O)CNC(=O)COc1ccccc1` the percent span was “inactive”.
`COc1ccccc1NC(=O)CSc1nnc(-c2ccco2)n1Cc1ccco1` was tested, and the percent span was “inactive”.
`COc1cc(N=c2ssnc2Cl)c(OC)cc1Cl` was tested, and the percent span was “inactive”.
In the case of `CC(C)CCN1CCN(Cc2cccc3cccnc23)CC1CCO` (stereo not drawn), the percent span was “inactive”.
In the case of `O=C1c2ccccc2C(=O)c2cc(S(=O)(=O)Nc3ccccc3)ccc21`, the percent span was “inactive”.
`CCN(CC)c1ccc(-c2nn3c(-c4cccnc4)nnc3s2)cc1` was tested, and the percent span was “inactive”.
For `CCOC(=O)c1snc(-c2ccc(F)cc2)c1N`, the percent span was “inactive”.
For `COc1cc(/C=N/NC(=O)c2ccc([N+](=O)[O-])cc2Cl)cc(Br)c1O`, the percent span was “inactive”.
With `CC(C)(C)c1nc(NCCN2CCOCC2)c2nnn(Cc3ccccc3Cl)c2n1` the percent span was “inactive”.
With `Cc1ccc(Nc2nc(-c3ccccc3)c(CC(=O)O)s2)cc1` the percent span was “inactive”.
